Data: patent US20050209278A1, “Piperidinyl- and piperazinyl-sulfonylmethyl hydroxamic acids and their use as protease inhibitors” (priority 2002, published 2005)
Where a name gives a salt, the structure may show the parent alone. Read-outs that look alike come from different tables or passages of the source.

Columns and labels:
[1] = test system: solid tumor cancers (colorectal, pancreatic, ovarian, and prostate); details: cited from earlier work
MMP-13 = target: T1, MMP-13 (Homo sapiens, UniProt P45452); assay: MMP-13 inhibition (in vitro Ki); assay type: biochemical
T1 construct: made in house; host or cells: baculovirus / insect cells

MMP-9 = target: T2, MMP-9 (Homo sapiens, UniProt P14780); assay: MMP-9 inhibition (in vitro Ki); assay type: biochemical
T2 construct: made in house; host or cells: MMP-9-transfected HT1080 cells (spent media)

MMP-1 = target: T3, MMP-1 (Homo sapiens, UniProt P03956); assay: MMP-1 inhibition (in vitro Ki); assay type: biochemical
T3 construct: made in house; host or cells: MMP-1-transfected HT-1080 cells (spent media)
T3 sequence (P03956 100-469): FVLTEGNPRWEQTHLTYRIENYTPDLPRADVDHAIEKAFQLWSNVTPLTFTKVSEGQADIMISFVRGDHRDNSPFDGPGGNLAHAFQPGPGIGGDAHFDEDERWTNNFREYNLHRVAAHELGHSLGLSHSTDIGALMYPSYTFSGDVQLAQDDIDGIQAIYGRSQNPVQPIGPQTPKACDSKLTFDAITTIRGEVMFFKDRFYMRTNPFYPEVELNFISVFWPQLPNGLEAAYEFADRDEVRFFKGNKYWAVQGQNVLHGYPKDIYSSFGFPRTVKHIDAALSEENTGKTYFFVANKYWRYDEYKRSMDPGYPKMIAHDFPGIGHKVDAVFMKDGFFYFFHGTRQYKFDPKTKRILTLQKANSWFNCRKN

MMP-2 = target: T4, MMP-2 (Homo sapiens, UniProt P08253); assay: MMP-2 inhibition (in vitro Ki); assay type: biochemical
T4 construct: made in house; host or cells: MMP-2-transfected p2AHT2 cells
T4 sequence (P08253 110-660): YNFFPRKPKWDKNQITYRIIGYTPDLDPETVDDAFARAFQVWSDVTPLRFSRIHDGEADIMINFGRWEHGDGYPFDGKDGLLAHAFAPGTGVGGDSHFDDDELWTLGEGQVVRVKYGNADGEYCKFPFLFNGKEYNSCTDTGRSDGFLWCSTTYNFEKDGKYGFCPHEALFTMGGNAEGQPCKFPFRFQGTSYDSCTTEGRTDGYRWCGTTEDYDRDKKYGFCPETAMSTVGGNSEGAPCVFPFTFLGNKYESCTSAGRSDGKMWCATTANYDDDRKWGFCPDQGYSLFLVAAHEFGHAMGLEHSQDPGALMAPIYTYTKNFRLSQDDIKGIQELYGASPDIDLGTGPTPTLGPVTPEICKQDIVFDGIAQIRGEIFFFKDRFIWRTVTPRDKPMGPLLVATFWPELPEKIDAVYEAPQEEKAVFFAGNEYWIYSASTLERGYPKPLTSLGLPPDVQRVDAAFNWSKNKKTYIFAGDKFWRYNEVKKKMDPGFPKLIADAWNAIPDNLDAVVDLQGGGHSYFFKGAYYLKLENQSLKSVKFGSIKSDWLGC

MMP-14 = target: T5, MMP-14 (Homo sapiens, UniProt P50281); assay: MMP-14 inhibition (in vitro Ki); assay type: biochemical
T5 construct: The catalytic domain enzyme was expressed in E. coli inclusion bodies, solubilized in urea; made in house

[2] = Table 9, read-out: MMP-13 Ki (IC-50)
[3] = Table 9, read-out: MMP-9 Ki (IC-50)
[4] = Table 9, read-out: MMP-1 Ki (IC-50)
[5] = Table 9, read-out: MMP-2 Ki (IC-50)
[6] = Table 9, read-out: MMP-14 Ki (IC-50)

T2 sequence (P14780 107-707 limits assumed): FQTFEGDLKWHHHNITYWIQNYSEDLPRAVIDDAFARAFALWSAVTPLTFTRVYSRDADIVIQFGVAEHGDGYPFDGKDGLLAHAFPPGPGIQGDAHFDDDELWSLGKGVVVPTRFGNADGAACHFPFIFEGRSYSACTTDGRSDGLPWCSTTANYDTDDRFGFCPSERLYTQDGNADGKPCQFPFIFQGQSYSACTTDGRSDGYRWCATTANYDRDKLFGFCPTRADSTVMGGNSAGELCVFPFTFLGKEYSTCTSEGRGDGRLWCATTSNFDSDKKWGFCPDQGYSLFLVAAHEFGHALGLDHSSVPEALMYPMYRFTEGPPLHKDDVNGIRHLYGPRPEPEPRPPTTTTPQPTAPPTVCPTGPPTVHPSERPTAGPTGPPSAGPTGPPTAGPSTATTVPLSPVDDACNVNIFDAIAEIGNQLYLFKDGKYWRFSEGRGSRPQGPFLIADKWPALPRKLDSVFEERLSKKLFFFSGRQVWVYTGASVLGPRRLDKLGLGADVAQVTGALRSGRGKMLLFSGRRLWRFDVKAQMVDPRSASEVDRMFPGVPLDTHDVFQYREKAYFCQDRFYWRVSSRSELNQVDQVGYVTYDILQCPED

Structure (SMILES) | Ki (MMP-13; [2]) [nM] | Ki (MMP-9; [3]) [nM] | Ki (MMP-1; [4]) [nM] | Ki (MMP-2; [5]) [nM] | Ki (MMP-14; [6]) [nM] | Ki (MMP-13; Table 8, read-out: MMP-13 Ki) [nM] | Ki (MMP-9; Table 8, read-out: MMP-9 Ki) [nM] | Ki (MMP-1; Table 8, read-out: MMP-1 Ki) [nM] | Ki (MMP-2; Table 8, read-out: MMP-2 Ki) [nM] | Ki (MMP-14; Table 8, read-out: MMP-14 Ki) [nM] | other results
CNC(=O)[C@@H](NC(=O)[C@H](CC(C)C)[C@H](O)C(=O)NO)C(C)(C)C [Marimastat] |  |  |  |  |  |  |  |  |  |  | most common drug-related toxicity ([1]; clinical trials in patients): musculoskeletal pain and stiffness; effect on cancer-specific antigens used as surrogate markers for biological activity ([1]; patients with advanced, rapidly progressive, treatment-refractory solid tumor cancers): dose-related reduction in the rise of cancer-specific antigens
COCCN1CCC(C(=O)NO)(S(=O)(=O)N2CCC(c3ccc(CCC(F)(F)C(F)(F)F)cn3)CC2)CC1 [Example A182] | 0.3 | 0.39 | > 10000 | 0.93 | 5890 |  |  |  |  |  | 
O=C(NO)C1(S(=O)(=O)N2CCC(c3cnc(CCC(F)(F)F)cn3)CC2)CCOCC1 [Example A72] | 2 | 1.4 | > 10000 | 3.8 | > 10000 |  |  |  |  |  | 
O=C(NO)C1(S(=O)(=O)N2CCC(CCCCCC(F)(F)F)CC2)CCOCC1 [Example A43, 4-[4-(6,6,6-Trifluoro-hexyl)-piperidine-1-sulfonyl]-tetrahydro-pyran-4-carboxylic Acid Hydroxyamide] |  |  |  |  |  | 0.58 | 0.19 | 3100 | 0.33 | 757 | 
CCCC#Cc1ccc(C2CCN(S(=O)(=O)C3(C(=O)NO)CCOCC3)CC2)nc1 [Example A139] | 0.17 | 0.15 | 2340 | 0.5 | 401 |  |  |  |  |  | 
O=C(CCCCC1CCN(S(=O)(=O)C2(C(=O)NO)CCOCC2)CC1)N1CCc2ccccc2C1 [Example A74] | 0.18 | 65.8 | 512 | 21.8 | 7960 |  |  |  |  |  | 
O=C(NO)C1(S(=O)(=O)N2CCN(c3ccc(CCCC(F)(F)F)c(F)c3)CC2)CCN(C2CC2)CC1 [Example A62, 1-cyclopropyl-4-({4-[3-fluoro-4-(4,4,4-trifluorobutyl)phenyl]piperazin-1-yl}sulfonyl)-N-hydroxypiperidine-4-carboxamide Hydrochloride] |  |  |  |  |  | 0.56 | 1.74 | > 10000 | 0.73 | 9050 | 
CC1(C)O[C@H]2C[C@@](C(=O)NO)(S(=O)(=O)N3CCC(c4ccc(CCC(F)(F)C(F)(F)F)cn4)CC3)C[C@H]2O1 [Example A73] | 0.09 | 0.16 | 716 | 0.22 | 140 |  |  |  |  |  | 
O=C(CCCCC1CCN(S(=O)(=O)C2(C(=O)NO)CCOCC2)CC1)N1CCCCC1 [Example A92] | 2.01 | 1100 | 3910 | 237 | > 10000 |  |  |  |  |  | 
O=C(/C=C/C=C/C1CCN(S(=O)(=O)C2(C(=O)NO)CCOCC2)CC1)N1CCN(c2ccccc2)CC1 [Example A76] | 6.79 | 1780 | > 10000 | 356 | > 10000 |  |  |  |  |  | 
CN(C(=O)CCCN1CCN(S(=O)(=O)C2(C(=O)NO)CCOCC2)CC1)C1CCCCC1 [Example A130] | 2910 | > 10000 | > 10000 | > 10000 | > 10000 |  |  |  |  |  | 
O=C(NO)C1(S(=O)(=O)N2CCC(OCCCCCCC(F)(F)F)CC2)CCOCC1 [Example A48, 4-[4-(7,7,7-trifluoro-heptyloxy)-piperidine-1-sulfonyl]-tetrahydro-pyran-4-carboxylic Acid Hydroxyamide] |  |  |  |  |  | 1.13 | 8.23 | > 10000 | 3.49 | 2710 | 
O=C(NO)C1(S(=O)(=O)N2CCN(c3ccc(-c4cccnc4)c(F)c3)CC2)CCOCC1 [Example A195] | 0.34 | 6.81 | 1570 | 0.18 | 2430 |  |  |  |  |  | 
O=C(NO)C1(S(=O)(=O)N2CCC(c3ccc(CCC(F)(F)C(F)(F)F)cn3)CC2)CCCCC1 [Example A56, N-hydroxy-1-({4-[5-(3,3,4,4,4-pentafluorobutyl)pyridin-2-yl]piperidin-1-yl}sulfonyl)cyclohexanecarboxamide Hydrochloride] |  |  |  |  |  | 0.14 | 0.15 | 2470 | 0.47 | 1010 | 
CCCCCCCCOC1CCN(S(=O)(=O)C2(C(=O)NO)CCOCC2)CC1 [Example A36B] |  |  |  |  |  | 0.63 | 1.34 | > 10000 | 1.87 | 1080 | 
O=C(NO)C1(S(=O)(=O)N2CCC(CCCCc3nc(-c4ccc(OC(F)(F)F)cc4)no3)CC2)CCOCC1 [Example A64, N-hydroxy-4-{[4-(4-{3-[4-(trifluoromethoxy)phenyl]-1,2,4-oxadiazol-5-yl}butyl)piperidin-1-yl]sulfonyl}tetrahydro-2H-pyran-4-carboxamide] |  |  |  |  |  | 0.51 | 273 | 8880 | 63.8 | > 10000 | 
CC(C)CCCOC1CCN(S(=O)(=O)C2(C(=O)NO)CCOCC2)CC1 [Example A36D] |  |  |  |  |  | 19.9 | 39.1 | > 10000 | 11.9 | 4060 | 
O=C(NO)C1(S(=O)(=O)N2CCC(c3ccc(CCC4CC4)cn3)CC2)CCOCC1 [Example A123] | 0.43 | 0.08 | 5160 | 0.58 | 1280 |  |  |  |  |  | 
O=C(/C=C/C=C/C1CCN(S(=O)(=O)C2(C(=O)NO)CCOCC2)CC1)N1CCOCC1 [Example A208] | 1.94 | 1590 | 7360 | 178 | > 10000 |  |  |  |  |  | 
O=C(CCCCN1CCN(S(=O)(=O)C2(C(=O)NO)CCOCC2)CC1)c1ccc(OC(F)(F)F)cc1 [Example A150] | 19.8 | 1030 | > 10000 | 243 | > 10000 |  |  |  |  |  | 
COCCC(CCOC)(C(=O)NO)S(=O)(=O)N1CCC(Oc2ccc(SC(F)(F)F)cc2)CC1 [Example B4, N-hydroxy-4-methoxy-2-(2-methoxyethyl)-2-[(4-{4-[(trifluoromethyl)thio]phenoxy}piperidin-1-yl)sulfonyl]butanamide] |  |  |  |  |  |  |  |  |  |  | Ki (MMP-13; Table 10, read-out: MMP-13 Ki): 0.45 nM; Ki (MMP-9; Table 10, read-out: MMP-9 Ki): 0.181 nM; Ki (MMP-1; Table 10, read-out: MMP-1 Ki): 2060 nM; Ki (MMP-2; Table 10, read-out: MMP-2 Ki): 0.654 nM; Ki (MMP-14; Table 10, read-out: MMP-14 Ki): 1640 nM
C#CCN(C)C(=O)CCCCC1CCN(S(=O)(=O)C2(C(=O)NO)CCOCC2)CC1 [Example A83] | 1.58 | 382 | 277 | 60 | > 10000 |  |  |  |  |  | 
O=C(NO)C1(S(=O)(=O)N2CCC(COCCCC(F)(F)F)CC2)CCOCC1 [Example A42, 4-[4-(4,4,4-trifluoro-butoxymethyl)-piperidine-1-sulfonyl]-tetrahydro-pyran-4-carboxylic Acid Hydroxyamide] |  |  |  |  |  | 33.3 | 28.6 | > 10000 | 22 | > 10000 | 
O=C(/C=C/C=C/C1CCN(S(=O)(=O)C2(C(=O)NO)CCOCC2)CC1)N1Cc2ccccc2C1 [Example A82] | 0.901 | 8280 | > 10000 | 1080 | > 10000 |  |  |  |  |  | 
O=C(NO)C1(S(=O)(=O)N2CCC(c3ccc(OCC4CC4)cn3)CC2)CCOCC1 [Example A172] | 1.24 | 0.36 | 4070 | 1.31 | 3620 |  |  |  |  |  | 
O=C(NO)C1(S(=O)(=O)N2CCC(CCCCOCCC(F)(F)F)CC2)CCOCC1 [Example A46, 4-{4-[4-(3,3,3-trifluoro-propoxy)-butyl]-piperidine-1-sulfonyl}-tetrahydro-pyran-4-carboxylic Acid Hydroxyamide] |  |  |  |  |  | 0.52 | 17.5 | 1500 | 5.97 | 3610 | 
